Source: US12264134B2 (Merck Sharp & Dohme LLC, priority 2018, dated 2025)

Assays:
IDO1 [1] = biological target: T1, IDO1 (Homo sapiens, UniProt P14902); assay: IDO1 Cellular Assay in HeLa Cells Stimulated with IFNγ; format: cell-based; settings: read-out: HeLa Cell Potency, IC50
IDO1 [2] = biological target: T1, IDO1; assay: IDO1 Human Whole blood Assay; format: cell-based; parameters: Human whole blood was drawn in sodium heparin coated tubes from healthy internal donors; from tissue; host or cells: human whole blood from healthy donors, stimulated with LPS and IFNγ; settings: LPS and IFNγ stimulated, 18 h, read-out: Human Whole Blood Potency, IC50
Method in brief: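 LC/MS/MS of kynurenine, normalized to spiked isotope-labeled standard (3 μM final), served as the readout. Beforehand, fresh human blood with compound (15 min preincubation) was stimulated overnight (18 h, 37 °C) with 100 ng/mL LPS/IFNγ. IC50 was obtained by four-parameter curve fitting.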

T1 sequence (P14902 whole entry): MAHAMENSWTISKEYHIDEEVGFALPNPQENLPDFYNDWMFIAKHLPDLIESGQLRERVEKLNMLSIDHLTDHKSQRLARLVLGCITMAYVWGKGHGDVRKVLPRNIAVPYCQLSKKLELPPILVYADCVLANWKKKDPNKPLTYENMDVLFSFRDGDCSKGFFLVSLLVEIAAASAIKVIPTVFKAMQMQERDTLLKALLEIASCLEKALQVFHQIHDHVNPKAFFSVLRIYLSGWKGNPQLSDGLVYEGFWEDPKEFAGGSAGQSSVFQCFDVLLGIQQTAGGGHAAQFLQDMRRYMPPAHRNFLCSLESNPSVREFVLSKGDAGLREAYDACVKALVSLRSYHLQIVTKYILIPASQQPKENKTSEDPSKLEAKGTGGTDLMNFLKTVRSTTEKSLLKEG

SMILES	IC50 (IDO1 [1])	IC50 (IDO1 [2])
Cc1cccc(N2CCN(C(=O)Cn3nc(C(=O)N4CCC(O)C(F)C4)c4c3CCC4)C3(CC3)C2)c1C (single isomer, unassigned) [Example 330, 1-[7-(2,3-dimethylphenyl)-4,7-diazaspiro[2.5]octan-4-yl]-2-[3-(3-fluoro-4-hydroxy-piperidine-1-carbonyl)-5,6-dihydro-4H-cyclopenta[c]pyrazol-1-yl]ethanone]	7.61 nM	971 nM
Cc1cccc(N2CCN(C(=O)Cn3nc(C(=O)N4CC[C@@H](O)[C@@H](F)C4)c4c3CC(F)C4)CC2)c1C (single isomer, unassigned) [Example 419]	10.8 nM	1150 nM
Cc1cccc(N2CCN(C(=O)Cn3nc(C(=O)N4CCN(S(C)(=O)=O)C[C@@H]4C)c4c3CCC4)CC2)c1C [Example 124, 1-[4-(2,3-dimethylphenyl)piperazin-1-yl]-2-{3-[(2S)-2-methyl-4-(methylsulfonyl)piperazine-1-carbonyl]-5,6-dihydrocyclopenta[c]pyrazol-1(4H)-yl}ethan-1-one]	1.32 nM	877 nM
Cc1c(Cl)cccc1N1CCN(C(=O)Cn2nc(C(=O)N3C[C@@H](C)O[C@@H](C)C3)c3c2CCC3)CC1 [Example 68, 1-[4-(3-chloro-2-methylphenyl)piperazin-1-yl]-2-{3-[(2R,6S)-2,6-dimethylmorpholine-4-carbonyl]-5,6-dihydrocyclopenta[c]pyrazol-1(4H)-yl}ethan-1-one]	3.6 nM	1010 nM
CC(=O)NC1CCN(C(=O)c2nn(CC(=O)N3CCN(c4ccc(F)c(C)c4C)CC34CC4)c3c2[C@@H]2C[C@@H]2C3)CC1 [Example 320, N-{1-[(3bR,4aR)-1-{2-[7-(4-fluoro-2,3-dimethylphenyl)-4,7-diazaspiro[2.5]octan-4-yl]-2-oxoethyl}-3b,4,4a,5-tetrahydro-1H-cyclopropa[3,4]cyclopenta[1,2-c]pyrazole-3-carbonyl]piperidin-4-yl}acetamide]	1.31 nM	347 nM
Cc1c(N2CCN(C(=O)Cn3nc(C(=O)N4CC[C@@H](O)[C@@H](F)C4)c4c3C[C@H]3C[C@@H]43)CC2)cccc1C(F)(F)F [Example 339, 2-((3bR,4aR)-3-((3S,4R)-3-fluoro-4-hydroxypiperidine-1-carbonyl)-3b,4,4a,5-tetrahydro-1H-cyclopropa[3,4]cyclopenta[1,2-c]pyrazol-1-yl)-1-(4-(2-methyl-3-(trifluoromethyl)phenyl)piperazin-1-yl)ethanone]	1.81 nM	229 nM
Cc1c(F)cccc1N1CCN(C(=O)Cn2nc(C(=O)N3CCC(OCCO)CC3)c3c2CCC3)CC1 [Example 456, 1-(4-(3-fluoro-2-methylphenyl)piperazin-1-yl)-2-(3-(4-(2-hydroxyethoxy)piperidine-1-carbonyl)-5,6-dihydrocyclopenta[c]pyrazol-1(4H)-yl) ethanone]	21.4 nM	102 nM
Cc1cccc(N2CCN(C(=O)Cn3nc(C(=O)N4CCC(O)C(F)C4)c4c3CCC4)C3(CC3)C2)c1C (single isomer, unassigned) [Example 329, 1-[7-(2,3-dimethylphenyl)-4,7-diazaspiro[2.5]octan-4-yl]-2-[3-(3-fluoro-4-hydroxy-piperidine-1-carbonyl)-5,6-dihydro-4H-cyclopenta[c]pyrazol-1-yl]ethanone]	7.2 nM	904 nM
Cc1cccc(N2CCN(C(=O)Cn3nc(C(=O)N4C[C@@H](C)O[C@@H](C)C4)c4c3[C@@H]3C[C@@H]3C4)CC2)c1C [Example 296, 2-{(4aR,5aR)-3-[(2R,6S)-2,6-dimethylmorpholine-4-carbonyl]-4,4a,5,5a-tetrahydro-1H-cyclopropa[4,5]cyclopenta[1,2-c]pyrazol-1-yl}-1-[4-(2,3-dimethylphenyl)piperazin-1-yl]ethan-1-one]	7.99 nM	543 nM
Cc1cccc(N2CCN(C(=O)Cn3nc(C(=O)N4CCN(CCO)CC4)c4c3C[C@H]3C[C@@H]43)CC2)c1C [Example 247]	0.91 nM	91 nM
